pIC50, pKd: −log10 of the molar value. Like-named read-outs stand apart in the source and are kept apart here.
Key:
Acetyl-CoA carboxylase 1 = target: T1, Acetyl-CoA carboxylase 1 (Homo sapiens, UniProt Q13085); experiment: SPR assay ACC1; format: binding; conditions: for Offset / Rmax / χ^2: ACC1
T1 construct: purchased Proteintech (Shanghai)
Method: In the SPR test, the target proteins were first combined with the CM5 chip. After correction through standard solutions, a series of different concentrations of molecules (0, 2, 4, 8, 16, 32, 64, and 128 μmol/l) were tested for their binding to the protein. Finally, the affinity between the protein and molecule was determined by an array of parameters, such as the Kd values, Rmax, offset, and χ^2.

[1] = target: T2, Mammalian target of rapamycin (Homo sapiens, UniProt P42345); experiment: Enzyme activity test mTOR (Lance ultra); format: biochemical
T2 construct: purchased Proteintech (Shanghai)
Method: (§1) As there were some kinase proteins in our protein database with different characteristics to other proteins, we used an enzyme activity test to validate the real interactions between the protein and molecule.
(§2) Selected pairs of protein and molecule participated in enzyme activity test, while electrophoretic mobility shirt assay (EMSA) and Lance ultra were conducted in an experiment with […] (100, 50, 25, 12.5, 6.25, 3.12, 1.56, 0.78, and 0.39 μmol/l). Finally, the IC50 (nM) value was used to assess the ability of a molecule to act or inhibit the protein.

[2] = database annotation in words, no reference given; cited from earlier work
[3] = cited from earlier work
[4] = target: T3, Protein kinase C, beta type (Homo sapiens, UniProt P05771); experiment: Enzyme activity test PKC-B (EMSA); format: biochemical
T3 construct: purchased Proteintech (Shanghai)
Method: as §1, §2

[5] = target: T4, Rho-associated protein kinase 1 (Homo sapiens, UniProt Q13464); experiment: Enzyme activity test ROCK1 (EMSA); format: biochemical
T4 construct: purchased Proteintech (Shanghai)
Method: as §1, §2

[6] = target: T5, Superoxide dismutase [Mn] (Homo sapiens, UniProt P04179); experiment: SPR assay SOD2; format: binding
T5 construct: purchased Sino Biological (Shanghai)
T5 sequence (P04179 25-222): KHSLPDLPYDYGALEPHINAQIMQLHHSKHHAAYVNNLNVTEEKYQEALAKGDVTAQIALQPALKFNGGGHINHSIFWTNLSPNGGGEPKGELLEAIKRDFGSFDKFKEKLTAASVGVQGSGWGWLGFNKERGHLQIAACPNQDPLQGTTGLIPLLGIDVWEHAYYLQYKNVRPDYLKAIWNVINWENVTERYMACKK

[7] = database annotation in words, no reference given; cited from earlier work; remark: listed apart in the source

T4 sequence (Q13464 whole entry): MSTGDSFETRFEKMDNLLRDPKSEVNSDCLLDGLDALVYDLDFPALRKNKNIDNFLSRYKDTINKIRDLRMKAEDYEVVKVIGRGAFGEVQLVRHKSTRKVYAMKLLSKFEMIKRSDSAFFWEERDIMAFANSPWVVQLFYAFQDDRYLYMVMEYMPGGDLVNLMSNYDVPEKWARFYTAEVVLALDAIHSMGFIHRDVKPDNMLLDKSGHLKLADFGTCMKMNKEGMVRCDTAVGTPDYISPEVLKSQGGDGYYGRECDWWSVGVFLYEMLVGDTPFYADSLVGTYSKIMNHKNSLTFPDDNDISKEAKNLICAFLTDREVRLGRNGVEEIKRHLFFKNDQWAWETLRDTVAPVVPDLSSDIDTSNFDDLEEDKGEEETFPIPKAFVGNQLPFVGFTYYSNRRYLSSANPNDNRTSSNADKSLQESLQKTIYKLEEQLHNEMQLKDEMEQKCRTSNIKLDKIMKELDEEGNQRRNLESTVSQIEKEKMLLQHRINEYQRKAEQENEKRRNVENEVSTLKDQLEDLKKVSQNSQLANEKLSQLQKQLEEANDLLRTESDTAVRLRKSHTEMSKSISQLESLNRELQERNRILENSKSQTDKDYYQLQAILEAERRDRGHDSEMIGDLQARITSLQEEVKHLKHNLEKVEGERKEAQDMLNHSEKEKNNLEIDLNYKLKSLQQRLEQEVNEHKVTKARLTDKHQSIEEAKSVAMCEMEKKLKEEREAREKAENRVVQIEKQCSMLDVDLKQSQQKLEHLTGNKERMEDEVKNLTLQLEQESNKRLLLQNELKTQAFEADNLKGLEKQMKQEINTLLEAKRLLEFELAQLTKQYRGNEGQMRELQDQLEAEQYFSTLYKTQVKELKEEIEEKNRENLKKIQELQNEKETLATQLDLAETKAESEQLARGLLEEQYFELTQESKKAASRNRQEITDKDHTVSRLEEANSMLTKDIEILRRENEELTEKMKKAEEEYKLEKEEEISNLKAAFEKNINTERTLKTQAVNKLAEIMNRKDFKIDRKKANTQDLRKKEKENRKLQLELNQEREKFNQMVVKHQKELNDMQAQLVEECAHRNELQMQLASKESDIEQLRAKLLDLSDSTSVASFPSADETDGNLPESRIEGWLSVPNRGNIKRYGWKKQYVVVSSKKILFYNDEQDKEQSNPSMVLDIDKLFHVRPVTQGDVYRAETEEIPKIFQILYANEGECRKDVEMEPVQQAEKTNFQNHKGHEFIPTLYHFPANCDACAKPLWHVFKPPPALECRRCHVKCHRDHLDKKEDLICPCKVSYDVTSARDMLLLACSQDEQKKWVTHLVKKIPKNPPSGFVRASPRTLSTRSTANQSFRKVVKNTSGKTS
T3 sequence (P05771 whole entry): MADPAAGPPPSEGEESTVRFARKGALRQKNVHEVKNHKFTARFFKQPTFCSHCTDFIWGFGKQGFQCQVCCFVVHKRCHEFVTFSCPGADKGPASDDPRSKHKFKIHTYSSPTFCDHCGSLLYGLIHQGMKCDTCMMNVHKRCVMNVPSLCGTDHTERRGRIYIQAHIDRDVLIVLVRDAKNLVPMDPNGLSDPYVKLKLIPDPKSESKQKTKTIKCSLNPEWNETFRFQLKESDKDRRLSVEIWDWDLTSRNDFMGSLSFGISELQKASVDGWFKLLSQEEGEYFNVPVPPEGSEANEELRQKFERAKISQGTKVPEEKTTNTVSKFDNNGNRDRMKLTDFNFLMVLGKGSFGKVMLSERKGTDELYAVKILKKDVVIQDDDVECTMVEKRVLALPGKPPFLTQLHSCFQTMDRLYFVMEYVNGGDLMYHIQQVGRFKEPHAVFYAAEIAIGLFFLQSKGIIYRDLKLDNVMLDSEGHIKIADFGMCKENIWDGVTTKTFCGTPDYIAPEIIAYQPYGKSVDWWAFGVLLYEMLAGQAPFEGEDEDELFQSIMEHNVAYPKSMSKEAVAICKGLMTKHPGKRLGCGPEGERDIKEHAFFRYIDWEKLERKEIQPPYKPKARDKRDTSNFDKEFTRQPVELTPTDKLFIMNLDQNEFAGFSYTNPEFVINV

CC(C)(O)[C@@H]1CC[C@](C)([C@H]2[C@@H](O)C[C@@]3(C)[C@@H]4C[C@H](O[C@@H]5O[C@H](CO)[C@@H](O)[C@H](O)[C@H]5O)[C@H]5C(C)(C)[C@@H](O[C@@H]6OC[C@@H](O)[C@H](O)[C@H]6O)CC[C@@]56C[C@@]46CC[C@]23C)O1 [Astragaloside IV]
pKd (Acetyl-CoA carboxylase 1): 4.03
Offset (Acetyl-CoA carboxylase 1; SPR): 0.2424 RU
Rmax (Acetyl-CoA carboxylase 1; SPR): 7.856 RU
χ^2 (Acetyl-CoA carboxylase 1; SPR): 0.0243 RU^2
pIC50 [1]: < 5.00
作用药理 (pharmacological action) [2]: 诱导TNF-α分泌，降低直接作用+作用于肝糖调节酶+通过上调Sarco/内质网Ca2 + -ATP酶2的表达。抑制足细胞介导的细胞凋亡的内质网应激
absorbed in blood after the oral administration of GDC [3]: could be absorbed in blood

COC(=O)C1=CO[C@@H](O[C@@H]2O[C@H](CO)[C@@H](O)[C@H](O)[C@H]2O)[C@@H]2[C@H](C)O[C@@H](O)C[C@H]12 [Morroniside]
Offset (Acetyl-CoA carboxylase 1; SPR): −0.2651 RU
Rmax (Acetyl-CoA carboxylase 1; SPR): 2.204 RU
χ^2 (Acetyl-CoA carboxylase 1; SPR): 0.0962 RU^2
pKd (Acetyl-CoA carboxylase 1; SPR, ACC1 on CM5 chip, read-out: Kd): 4.87
pIC50 [4]: < 5.00
pIC50 [5]: < 5.00
absorbed in blood after the oral administration of GDC [3]: could be absorbed in blood

C[C@@H]1O[C@@H](OC[C@H]2O[C@@H](Oc3c(-c4ccc(O)c(O)c4)oc4cc(O)cc(O)c4c3=O)[C@H](O)[C@@H](O)[C@@H]2O)[C@H](O)[C@H](O)[C@H]1O [Rutin]
absorbed in blood after the oral administration of GDC [3]: could be absorbed in blood

COc1c(O)cc(O)c2c(=O)cc(-c3ccccc3)oc12 [Wogonin]
Offset ([6]; SOD2): −3.611 RU
Rmax ([6]; SOD2): 14.3 RU
χ^2 ([6]; SOD2): 2.11 RU^2
pKd ([6]; SOD2 on CM5 chip): 5.29

OC[C@H]1O[C@@H](O[C@@H]2OC=C[C@H]3[C@H](O)[C@@H]4O[C@]4(CO)[C@@H]23)[C@H](O)[C@@H](O)[C@@H]1O [catalpol / catalpinoside]
作用药理 (pharmacological action) [2]: 有降糖作用
stability remark (acid, base, high temperature) [7]: 酸碱高温下可分解，分解后变黑

COc1cc(C(=O)OCCCCNC(=N)N)cc(OC)c1O [leonurine]
作用药理 (pharmacological action) [2]: 抗血小板作用

astragalosideⅤ
作用药理 (pharmacological action) [2]: 阻碍羧甲基赖氨酸、戊糖苷形成，抑制糖尿病视网膜病变、神经病变进程

stachyose
作用药理: side effect [2]: 胀气副作用，炮制可减少水苏糖的量

From paper PMC5944259 (Evidence-based Complementary and Alternative Medicine : eCAM, 2018)
